Experimental data published in PMC5538625, “Perception of root‐active CLE peptides requires CORYNE function in the phloem vasculature” (EMBO Reports, 2017).
Where no end group is shown, it is not given here. [ ]: non-standard residue; d: D form. Hyp = O=C(O)[C@@H]1C[C@@H](O)CN1

Key:
[1] = test system: Arabidopsis Col-0 seedlings (primary root); experiment: Root growth assay, wild type (Col-0); format: in vivo, Arabidopsis thaliana; conditions: 50 nM peptide, 9-day-old seedlings, primary root length, n ≥ 12
Experimental: Plant tissue culture, plant transformation, and common molecular biology procedures such as genomic DNA isolation, genotyping, sequencing, and peptide or inhibitor treatments were performed according to standard procedures as previously described 9, 19, 44, 65.
All mutant and transgenic lines were in the Arabidopsis Columbia‐0 (Col‐0) background. The following previously described mutant alleles were used throughout: brx‐2, bam3‐2, brx‐2 bam3, clv2‐1, serk1‐1 and serk1‐3, serk2‐1, serk3‐1, serk4‐1, serk5‐1 9, 47, 59, 66, 67, 68. The crn loss‐of‐function mutant allele (crn‐10) carries a single nucleotide insertion in front of the 7th codon, which leads to a frameshift and three subsequent premature stop codons after amino acid 10 52.

[2] = biological target: T1, BAM3 extracellular (LRR) domain (30–651) (Arabidopsis thaliana, UniProt O65440); experiment: biochemical; format: binding
T1 construct: azurocidin signal peptide (N); made in house; host or cells: Trichoplusia ni Tnao38 insect cells (baculovirus, secreted)
Experimental: Isothermal titration calorimetry assays were run on a Nano ITC (1 ml standard cell; 250 μl syringe; TA Instruments) at 25°C in 20 mM sodium citrate pH 5 and 150 mM NaCl for all ITCs with BAM3 and 10 mM Bis–Tris pH 6 and 100 mM NaCl for the ITC with PXY. […] For each experiment, 10 μl was repetitively injected into the cell in 150 s time intervals. The measured heat rates for the BAM3‐ECD vs. CLE45, BAM3^QYY vs. CLE45, BAM3‐ECD vs. Y‐CLE45, BAM3‐ECD vs. CLV3, BAM3‐ECD vs. Y‐CLV3, and PXY‐ECD vs. CLE41/44 were corrected by subtracting the heat rates measured for injecting CLE45, Y‐CLE45, CLV3, Y‐CLV3, or CLE41/44 into the ITC buffer, respectively. The data for the BAM3‐ECD + CLE45 vs. SERK1‐ECD measurement was corrected by subtracting heat rates acquired by injecting SERK1‐ECD into a cell containing CLE45. Data analyses and modeling were carried out using the software supplied by the manufacturer (NanoAnalyze, version 3.5).

[3] = biological target: T2, BAM3 extracellular domain (BAM3-ECD) (Arabidopsis thaliana, UniProt O65440 30-651); experiment: ITC; peptide titrated (10 μl injections, 150 s intervals) into the BAM3 ectodomain in the cell; Nano ITC, 25°C, 20 mM sodium citrate pH 5, 150 mM NaCl; conditions: both partners purified
T2 construct: Cloned in a modified pFastBac1 with an N-terminal azurocidin signal peptide for secretion; MALDI-TOF mass 94,586 Da; also called BAM3 LRR domain; BAM3 ectodomain; source: Trichoplusia ni Tnao38 cells, secreted, purified (Ni2+, StrepII, size-exclusion chromatography)
T2 sequence (looked up): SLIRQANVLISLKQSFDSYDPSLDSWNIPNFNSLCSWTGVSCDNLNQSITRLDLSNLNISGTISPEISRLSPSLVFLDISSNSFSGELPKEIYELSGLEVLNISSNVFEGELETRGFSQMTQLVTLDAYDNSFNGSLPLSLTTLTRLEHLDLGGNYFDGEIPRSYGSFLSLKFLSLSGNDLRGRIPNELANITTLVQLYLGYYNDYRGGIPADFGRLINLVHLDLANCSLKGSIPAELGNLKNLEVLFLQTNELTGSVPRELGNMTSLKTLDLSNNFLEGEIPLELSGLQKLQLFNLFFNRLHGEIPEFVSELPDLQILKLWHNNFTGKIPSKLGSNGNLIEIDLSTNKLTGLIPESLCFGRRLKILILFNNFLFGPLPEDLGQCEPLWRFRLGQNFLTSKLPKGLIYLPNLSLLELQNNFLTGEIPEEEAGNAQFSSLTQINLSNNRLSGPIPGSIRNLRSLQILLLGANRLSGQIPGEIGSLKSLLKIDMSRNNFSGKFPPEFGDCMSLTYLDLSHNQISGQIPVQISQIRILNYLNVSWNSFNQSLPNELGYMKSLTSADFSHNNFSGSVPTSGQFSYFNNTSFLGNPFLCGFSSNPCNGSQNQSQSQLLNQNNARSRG

[4] = biological target: T3, BAM3^QYY extracellular domain (BAM3^QYY-ECD) (Arabidopsis thaliana, UniProt O65440 30-651, Q226A | Y228A | Y231A); experiment: as above; conditions: both partners purified
T3 construct: Same construct as m1 (azurocidin signal peptide for secretion) with three point mutations; also called mutant BAM3^QYY; source: Trichoplusia ni Tnao38 cells, secreted, purified (Ni2+, StrepII, size-exclusion chromatography)
T3 sequence (looked up): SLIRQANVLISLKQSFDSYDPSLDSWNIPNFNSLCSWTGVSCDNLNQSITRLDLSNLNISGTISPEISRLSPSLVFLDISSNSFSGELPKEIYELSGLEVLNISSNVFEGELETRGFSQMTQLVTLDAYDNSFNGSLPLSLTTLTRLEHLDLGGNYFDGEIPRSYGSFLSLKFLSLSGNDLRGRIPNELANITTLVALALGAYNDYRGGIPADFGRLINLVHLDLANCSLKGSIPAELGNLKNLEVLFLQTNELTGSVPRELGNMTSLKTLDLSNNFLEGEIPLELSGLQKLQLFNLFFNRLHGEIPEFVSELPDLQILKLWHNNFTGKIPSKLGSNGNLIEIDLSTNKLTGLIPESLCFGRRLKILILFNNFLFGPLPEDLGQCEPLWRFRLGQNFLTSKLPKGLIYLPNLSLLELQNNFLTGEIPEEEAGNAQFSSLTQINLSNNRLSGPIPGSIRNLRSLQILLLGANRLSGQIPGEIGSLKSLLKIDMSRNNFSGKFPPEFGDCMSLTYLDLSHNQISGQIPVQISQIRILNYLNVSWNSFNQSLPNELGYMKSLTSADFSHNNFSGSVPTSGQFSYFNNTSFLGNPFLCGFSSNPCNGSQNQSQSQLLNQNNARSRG

[5] = biological target: T4, BAM3^QYY extracellular domain (BAM3^QYY-ECD) (Arabidopsis thaliana, UniProt O65440 30-651, Q226A | Y228A | Y231A); experiment: ITC
T4 sequence: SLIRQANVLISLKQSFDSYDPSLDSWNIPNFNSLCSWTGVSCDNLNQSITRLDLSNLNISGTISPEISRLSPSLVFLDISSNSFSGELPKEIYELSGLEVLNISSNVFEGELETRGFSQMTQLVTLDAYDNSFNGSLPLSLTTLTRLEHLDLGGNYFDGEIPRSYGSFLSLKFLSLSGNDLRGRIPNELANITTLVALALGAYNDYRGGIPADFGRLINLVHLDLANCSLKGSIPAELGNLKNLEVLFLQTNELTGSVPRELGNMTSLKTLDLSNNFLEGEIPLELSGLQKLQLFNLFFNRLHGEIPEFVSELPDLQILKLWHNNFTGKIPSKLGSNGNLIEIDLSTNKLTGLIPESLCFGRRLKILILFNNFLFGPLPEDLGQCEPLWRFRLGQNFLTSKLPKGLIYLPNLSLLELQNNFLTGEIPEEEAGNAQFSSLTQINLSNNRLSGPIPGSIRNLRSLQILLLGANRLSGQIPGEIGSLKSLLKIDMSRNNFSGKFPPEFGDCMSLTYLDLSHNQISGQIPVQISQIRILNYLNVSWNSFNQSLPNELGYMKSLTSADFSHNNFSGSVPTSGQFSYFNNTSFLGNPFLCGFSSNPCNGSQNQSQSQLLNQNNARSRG

[6] = biological target: T5, PXY extracellular domain (PXY-ECD) (Arabidopsis thaliana, UniProt Q9FII5 30-647); experiment: ITC
T5 chain: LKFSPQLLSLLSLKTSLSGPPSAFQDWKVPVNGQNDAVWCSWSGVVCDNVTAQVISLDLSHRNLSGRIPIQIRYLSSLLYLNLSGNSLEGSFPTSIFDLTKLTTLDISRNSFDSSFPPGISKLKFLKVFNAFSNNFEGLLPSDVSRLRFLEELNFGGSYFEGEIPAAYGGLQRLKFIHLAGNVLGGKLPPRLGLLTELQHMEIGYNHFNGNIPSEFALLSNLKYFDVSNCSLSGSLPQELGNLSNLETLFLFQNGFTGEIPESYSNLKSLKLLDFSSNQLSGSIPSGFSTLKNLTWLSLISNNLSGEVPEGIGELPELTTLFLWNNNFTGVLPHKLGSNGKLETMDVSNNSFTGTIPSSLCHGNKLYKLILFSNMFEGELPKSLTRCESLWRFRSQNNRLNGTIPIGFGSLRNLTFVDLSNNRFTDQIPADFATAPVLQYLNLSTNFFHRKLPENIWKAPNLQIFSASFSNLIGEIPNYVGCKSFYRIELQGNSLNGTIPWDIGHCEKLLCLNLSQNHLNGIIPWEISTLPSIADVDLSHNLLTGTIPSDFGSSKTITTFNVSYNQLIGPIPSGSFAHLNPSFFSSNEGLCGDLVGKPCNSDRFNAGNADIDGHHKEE

[7] = biological target: T6, BAM3 extracellular domain (BAM3-ECD) (Arabidopsis thaliana, UniProt O65440 30-651); experiment: ITC
T6 chain: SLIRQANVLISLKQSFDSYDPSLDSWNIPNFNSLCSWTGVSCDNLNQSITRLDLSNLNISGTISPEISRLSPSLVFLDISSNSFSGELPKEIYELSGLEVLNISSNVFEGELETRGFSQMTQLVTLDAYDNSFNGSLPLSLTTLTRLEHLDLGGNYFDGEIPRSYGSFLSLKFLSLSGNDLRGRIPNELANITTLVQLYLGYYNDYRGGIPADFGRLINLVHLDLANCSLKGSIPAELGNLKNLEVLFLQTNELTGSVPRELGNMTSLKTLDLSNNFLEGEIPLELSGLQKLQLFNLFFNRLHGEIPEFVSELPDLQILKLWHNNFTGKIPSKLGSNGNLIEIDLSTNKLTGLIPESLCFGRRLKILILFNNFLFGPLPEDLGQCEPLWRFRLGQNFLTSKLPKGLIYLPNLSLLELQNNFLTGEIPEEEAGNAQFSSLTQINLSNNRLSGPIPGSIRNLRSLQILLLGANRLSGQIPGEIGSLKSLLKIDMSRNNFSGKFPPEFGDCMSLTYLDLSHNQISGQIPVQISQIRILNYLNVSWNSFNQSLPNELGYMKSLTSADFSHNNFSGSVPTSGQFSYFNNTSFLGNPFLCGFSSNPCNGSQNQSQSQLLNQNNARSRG

RQIPTGPDPLHN [CLE18, CLE18: …] was tested, and the “impact on root growth” value [1] was “significant, reproducible impact on root growth”.

With RQVPTGSDPLHH [CLE40, CLE40: …] the “impact on root growth” value [1] was “significant, reproducible impact on root growth”.

RRVPTGPNPLHH [CLE8, CLE8: …] was tested, and the “impact on root growth” value [1] was “significant, reproducible impact on root growth”.

RRVRRGSDPIHN [CLE45] was tested, and the Kd [2] was 116 ± 36 nM.

RSIPTGPNPLHN [CLE21, CLE21: …] was tested, and the “impact on root growth” value [1] was “significant, reproducible impact on root growth”.

For RTVPSGPDPLHH [CLV3, CLV3: …], the “N (stoichiometry)” value ([2]; ITC, 25°C, 20 mM sodium citrate pH 5, 150 mM NaCl, ± fitting errors (95% confidence interval), n.d.: not detectable) was 0.978 +/- 0.23, the “reduction in binding affinity of CLV3 vs. CLE45 (fold)” value ([2]; ITC, Fig EV1C vs. CLE45) was 70 fold and the “impact on root growth” value [1] was “significant, reproducible impact on root growth”.

For RVVPSGPNPLHH [CLE11, CLE11: …], the “impact on root growth” value [1] was “significant, reproducible impact on root growth”.

B1: CLE45 peptide (peptide)
peptide: RRVRRGSDPIHN
notes: CLE45, mature 12-residue CLE peptide of Arabidopsis; also called synthetic CLE45 peptide; source: synthetic peptide (Peptide Specialty Laboratories, Heidelberg)
For B1, the Kd [3] was ~120 nM, the “stoichiometry N” value [3] was 1 and the “fold weaker than with the wild-type LRR domain” value [4] was ~8 fold. The Kd [5] was 1110 nM.

B2: CLE41/44 peptide (ITC, unmodified as printed) (peptide)
peptide: HEVPSGPNPISN
notes: CLE41/44 (TDIF), mature 12-residue CLE peptide of Arabidopsis, the same from CLE41 and CLE44; The same peptide is also encoded by CLE44; also called TDIF; source: synthetic peptide (Peptide Specialty Laboratories, Heidelberg)
B2 showed a Kd [6] of 12.2 nM.

B3: N-terminally tyrosine-modified CLE45 peptide (Y-CLE45) (peptide)
peptide: YRRVRRGSDPIHN
With B3 the Kd [7] was 12700 nM.

B4: CLV3 peptide (ITC) (peptide)
peptide: RTV[Hyp]SG[Hyp]DPLHHH
notes: CLAVATA3 (CLV3) mature CLE peptide of Arabidopsis, 13 residues as printed for the ITC; the ITC peptide is printed with three C-terminal histidines; source: synthetic peptide (Peptide Specialty Laboratories, Heidelberg)
In the case of B4, the Kd [3] is reported as ~10000 nM and the Kd [7] is reported as 8620 nM.
